The NIST ThermoML archive (doi:10.1021/acs.jced.6b00536)
Where “and” joins values, the source holds several entries; their conditions need not be identical. Identical values can stand only once.

Conditions: Gas, Frequency=0.05 MHz, Single path-length method

FC(F)(F)C(F)(F)C(F)(F)F [octafluoropropane]
Conditions	speed of sound
251.1 K, 62.4 kPa	106.76 m/s
251.1 K, 71.8 kPa	106.39 m/s
251.1 K, 80.5 kPa	106.08 m/s
251.1 K, 89.7 kPa	105.72 m/s
251.1 K, 102 kPa	105.24 m/s
251.1 K, 118.2 kPa	104.61 m/s
251.1 K, 143.1 kPa	103.57 m/s
251.1 K, 167.2 kPa	102.56 m/s
256.3 K, 63.7 kPa	107.91 m/s
256.3 K, 73.3 kPa	107.57 m/s
256.3 K, 82.2 kPa	107.26 m/s
256.3 K, 91.7 kPa	106.91 m/s
256.3 K, 104.3 kPa	106.47 m/s
256.3 K, 120.9 kPa	105.85 m/s
256.3 K, 146.4 kPa	104.86 m/s
256.3 K, 171.2 kPa	103.89 m/s
256.3 K, 198.4 kPa	102.79 m/s
256.3 K, 221.3 kPa	101.83 m/s
261.6 K, 65.1 kPa	109.07 m/s
261.6 K, 74.9 kPa	108.75 m/s
261.6 K, 84 kPa	108.44 m/s
261.6 K, 93.7 kPa	108.11 m/s
261.6 K, 106.6 kPa	107.67 m/s
261.6 K, 123.6 kPa	107.08 m/s
261.6 K, 149.8 kPa	106.13 m/s
261.6 K, 175.2 kPa	105.21 m/s
261.6 K, 203.2 kPa	104.16 m/s
261.6 K, 226.7 kPa	103.22 m/s
261.6 K, 233.4 kPa	102.97 m/s
261.6 K, 253.9 kPa	102.14 m/s
266.8 K, 66.4 kPa	110.2 m/s
266.8 K, 76.4 kPa	109.87 m/s
266.8 K, 85.7 kPa	109.58 m/s
266.8 K, 95.7 kPa	109.25 m/s
266.8 K, 108.8 kPa	108.83 m/s
266.8 K, 126.3 kPa	108.28 m/s
266.8 K, 153 kPa	107.37 m/s
266.8 K, 179.2 kPa	106.48 m/s
266.8 K, 207.8 kPa	105.46 m/s
266.8 K, 232.2 kPa	104.58 m/s
266.8 K, 238.9 kPa	104.32 m/s
266.8 K, 260 kPa	103.52 m/s
272.1 K, 67.8 kPa	111.33 m/s
272.1 K, 78 kPa	111.03 m/s
272.1 K, 87.5 kPa	110.74 m/s
272.1 K, 97.7 kPa	110.44 m/s
272.1 K, 111.1 kPa	110.02 m/s
272.1 K, 128.9 kPa	109.46 m/s and 109.47 m/s
272.1 K, 156.4 kPa	108.62 m/s and 108.61 m/s
272.1 K, 183.1 kPa	107.74 m/s
272.1 K, 212.6 kPa	106.77 m/s
272.1 K, 237.5 kPa	105.93 m/s
272.1 K, 244.5 kPa	105.69 m/s
272.1 K, 266.3 kPa	104.92 m/s
277.4 K, 69.1 kPa	112.44 m/s
277.4 K, 79.6 kPa	112.15 m/s
277.4 K, 89.3 kPa	111.87 m/s
277.4 K, 99.7 kPa	111.58 m/s
277.4 K, 113.4 kPa	111.18 m/s
277.4 K, 131.6 kPa	110.66 m/s
277.4 K, 159.7 kPa	109.81 m/s
277.4 K, 187.1 kPa	108.99 m/s
277.4 K, 217.3 kPa	108.05 m/s
277.4 K, 242.9 kPa	107.24 m/s
277.4 K, 250.1 kPa	107.02 m/s
277.4 K, 272.5 kPa	106.29 m/s
282.7 K, 70.4 kPa	113.54 m/s
282.7 K, 81.2 kPa	113.28 m/s
282.7 K, 91 kPa	113 m/s
282.7 K, 101.6 kPa	112.71 m/s
282.7 K, 115.6 kPa	112.32 m/s
282.7 K, 134.3 kPa	111.82 m/s
282.7 K, 163 kPa	111.01 m/s
282.7 K, 191.1 kPa	110.22 m/s
282.7 K, 222 kPa	109.31 m/s
282.7 K, 248.3 kPa	108.54 m/s
282.7 K, 255.6 kPa	108.32 m/s
282.7 K, 278.6 kPa	107.62 m/s
287.9 K, 71.8 kPa	114.63 m/s
287.9 K, 82.7 kPa	114.36 m/s
287.9 K, 92.8 kPa	114.11 m/s
287.9 K, 103.6 kPa	113.84 m/s
287.9 K, 117.9 kPa	113.46 m/s
287.9 K, 136.9 kPa	112.97 m/s
287.9 K, 166.3 kPa	112.19 m/s
287.9 K, 195 kPa	111.42 m/s
287.9 K, 226.7 kPa	110.56 m/s
287.9 K, 253.6 kPa	109.81 m/s
287.9 K, 261.1 kPa	109.59 m/s
287.9 K, 284.7 kPa	108.91 m/s
293.2 K, 73.1 kPa	115.72 m/s
293.2 K, 84.2 kPa	115.45 m/s
293.2 K, 84.3 kPa	115.46 m/s
293.2 K, 94.5 kPa	115.2 m/s
293.2 K, 94.6 kPa	115.21 m/s
293.2 K, 105.6 kPa	114.93 m/s and 114.94 m/s
293.2 K, 120.1 kPa	114.57 m/s
293.2 K, 139.6 kPa	114.1 m/s
293.2 K, 169.6 kPa	113.36 m/s
293.2 K, 198.9 kPa	112.61 m/s
293.2 K, 231.3 kPa	111.79 m/s
293.2 K, 231.4 kPa	111.79 m/s
293.2 K, 258.8 kPa	111.04 m/s
293.2 K, 258.9 kPa	111.05 m/s
293.2 K, 266.6 kPa	110.85 m/s
293.2 K, 266.7 kPa	110.86 m/s
293.2 K, 290.7 kPa	110.18 m/s
293.2 K, 290.8 kPa	110.19 m/s
298.4 K, 74.5 kPa	116.78 m/s
298.4 K, 85.8 kPa	116.53 m/s
298.4 K, 96.3 kPa	116.29 m/s
298.4 K, 107.6 kPa	116.05 m/s
298.4 K, 122.4 kPa	115.7 m/s
298.4 K, 142.2 kPa	115.21 m/s
298.4 K, 172.8 kPa	114.5 m/s
298.4 K, 202.9 kPa	113.8 m/s
298.4 K, 235.9 kPa	112.97 m/s
298.4 K, 264.2 kPa	112.28 m/s
298.4 K, 272.1 kPa	112.08 m/s
298.4 K, 296.8 kPa	111.46 m/s
303.7 K, 75.8 kPa	117.86 m/s
303.7 K, 87.4 kPa	117.61 m/s
303.7 K, 98.1 kPa	117.39 m/s
303.7 K, 109.5 kPa	117.14 m/s
303.7 K, 124.7 kPa	116.78 m/s
303.7 K, 144.9 kPa	116.33 m/s
303.7 K, 176.2 kPa	115.66 m/s
303.7 K, 206.7 kPa	114.96 m/s
303.7 K, 240.6 kPa	114.17 m/s
303.7 K, 269.4 kPa	113.49 m/s
303.7 K, 277.6 kPa	113.32 m/s
308.9 K, 77.1 kPa	118.9 m/s
308.9 K, 88.9 kPa	118.66 m/s
308.9 K, 99.8 kPa	118.44 m/s
308.9 K, 111.5 kPa	118.19 m/s
308.9 K, 127 kPa	117.87 m/s
308.9 K, 147.5 kPa	117.44 m/s
308.9 K, 179.4 kPa	116.75 m/s
308.9 K, 210.6 kPa	116.08 m/s
308.9 K, 245.2 kPa	115.33 m/s
308.9 K, 274.7 kPa	114.68 m/s
308.9 K, 283 kPa	114.5 m/s
314.1 K, 78.5 kPa	119.93 m/s
314.1 K, 90.4 kPa	119.69 m/s
314.1 K, 101.6 kPa	119.47 m/s
314.1 K, 113.4 kPa	119.24 m/s
314.1 K, 129.2 kPa	118.93 m/s
314.1 K, 150.2 kPa	118.52 m/s
314.1 K, 182.7 kPa	117.85 m/s
314.1 K, 214.5 kPa	117.21 m/s
314.1 K, 249.8 kPa	116.47 m/s
314.1 K, 279.9 kPa	115.84 m/s
314.1 K, 288.4 kPa	115.67 m/s
319.4 K, 79.8 kPa	120.96 m/s
319.4 K, 92 kPa	120.74 m/s
319.4 K, 103.3 kPa	120.52 m/s
319.4 K, 115.4 kPa	120.29 m/s
319.4 K, 131.4 kPa	119.98 m/s
319.4 K, 152.8 kPa	119.58 m/s
319.4 K, 185.9 kPa	118.95 m/s
319.4 K, 218.4 kPa	118.33 m/s
319.4 K, 254.4 kPa	117.62 m/s
319.4 K, 285.1 kPa	117.02 m/s
319.4 K, 293.8 kPa	116.85 m/s
324.6 K, 81.2 kPa	121.98 m/s
324.6 K, 93.5 kPa	121.75 m/s
324.6 K, 105.1 kPa	121.56 m/s
324.6 K, 117.4 kPa	121.32 m/s
324.6 K, 133.7 kPa	121.03 m/s
324.6 K, 155.4 kPa	120.64 m/s
324.6 K, 189.2 kPa	120.02 m/s
324.6 K, 222.3 kPa	119.43 m/s
324.6 K, 259 kPa	118.74 m/s
324.6 K, 290.3 kPa	118.16 m/s
324.6 K, 299.2 kPa	117.99 m/s
